From patent US11746100B2 (GLOBAL BLOOD THERAPEUTICS, INC., priority 2020, dated 2023)

Biological target: T1, human ferroportin (Homo sapiens, UniProt Q9NP59)
T1 construct: luciferase reporter (read with the Nano-Glo Luciferase Assay System); expressed in transfected cells; host or cells: CHO cells, stably transfected, expression induced with doxycycline
T1 sequence (Q9NP59 1-571): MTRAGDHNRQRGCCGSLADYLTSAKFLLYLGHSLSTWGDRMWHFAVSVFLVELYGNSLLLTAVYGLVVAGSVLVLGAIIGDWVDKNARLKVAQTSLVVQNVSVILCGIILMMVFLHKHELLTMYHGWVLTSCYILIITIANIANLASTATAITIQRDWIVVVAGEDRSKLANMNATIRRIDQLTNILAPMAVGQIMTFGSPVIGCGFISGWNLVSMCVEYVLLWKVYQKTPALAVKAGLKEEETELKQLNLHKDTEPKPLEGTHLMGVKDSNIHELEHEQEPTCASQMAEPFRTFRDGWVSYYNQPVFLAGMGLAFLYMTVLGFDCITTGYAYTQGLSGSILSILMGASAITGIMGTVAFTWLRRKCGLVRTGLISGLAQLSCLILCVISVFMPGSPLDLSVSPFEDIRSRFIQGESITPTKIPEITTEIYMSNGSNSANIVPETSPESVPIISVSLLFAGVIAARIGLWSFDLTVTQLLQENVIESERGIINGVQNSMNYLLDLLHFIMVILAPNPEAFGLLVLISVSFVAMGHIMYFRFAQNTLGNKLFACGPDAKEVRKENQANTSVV
Assay: Biological in-vitro ferroportin internalization assay (luciferase reporter)
Type: cell-based
Conditions: average pEC50; stably-transfected CHO cell line expressing human ferroportin tagged to a luciferase reporter; 6 h incubation with test compound
Method: The protocol for this assay is generally as described in WO2018/128828, incorporated herein by reference in its entirety. Functional internalization of ferroportin protein was measured using a stably-transfected CHO cell line expressing the human ferroportin tagged to a luciferase reporter. Cells were plated for 24 h in the presence of ferric ammonium citrate (FAC). Ferroportin protein expression was induced with doxycycline for 24 h. The next day, the compounds were added. Test compounds were dissolved in DMSO. Cells were incubated with the test compounds for 6 h, and subsequently luciferase activity was measured using the Nano-Glo Luciferase Assay System and Glomax (Promega, Madison, Wis.). The average pEC50 was determined for the test compounds.

Row | pEC50 | Compound
1 | 7.8 | C[C@@H]1OC[C@@H]1Oc1ccnc(-c2nc3c(c(N(C)CC(=O)NC(C)(C)C)n2)CCC3)c1 (racemic) [Compound 332, N-tert-butyl-2-{methyl[2-(4-{[(2S,3S)-2-methyloxetan-3-yl]oxy}pyridin-2-yl)-5H,6H,7H-cyclopenta[d]pyrimidin-4-yl]amino}acetamide]
2 | 7.8 | C[C@H]1OC[C@@H]1Oc1ccnc(-c2nc3c(c(N(C)CC(=O)NC(C)(C)C)n2)CCC3)c1 (racemic) [Compound 333, N-tert-butyl-2-{methyl[2-(4-{[(2R,3S)-2-methyloxetan-3-yl]oxy}pyridin-2-yl)-5H,6H,7H-cyclopenta[d]pyrimidin-4-yl]amino}acetamide]
3 | 7.8 | COc1ccnc(-c2nc3c(c(N(C)CC(=O)N[C@@H]4CCC[C@@H]4O)n2)CCC3)c1 (relative stereo) [Compound 170, N-[(1R,2S)-2-hydroxycyclopentyl]-2-{[2-(4-methoxypyridin-2-yl)-5H,6H,7H-cyclopenta[d]pyrimidin-4-yl](methyl)amino}acetamide]
4 | 7.5 | COc1ccnc(-c2nc3c(c(N(C)CC(=O)N[C@@H]4CCC[C@H]4O)n2)CCC3)c1 (relative stereo) [Compound 172, N-[(1R,2R)-2-hydroxycyclopentyl]-2-{[2-(4-methoxypyridin-2-yl)-5H,6H,7H-cyclopenta[d]pyrimidin-4-yl](methyl)amino}acetamide]
5 | 7.3 | COc1ccnc(-c2nc3c(c(N(C)CC(=O)N[C@@H]4CCCC[C@@H]4O)n2)CCC3)c1 (stereo in doubt) [Compound 168, N-[(1R,2S)-2-hydroxycyclohexyl]-2-{[2-(4-methoxypyridin-2-yl)-5H,6H,7H-cyclopenta[d]pyrimidin-4-yl](methyl)amino}acetamide]
6 | 6.8 | COc1ccnc(-c2nc3c(c(N(C)CC(=O)N[C@H]4CCC[C@@H]4O)n2)CCC3)c1 (stereo in doubt) [Compound 173, N-[(1S,2S)-2-hydroxycyclopentyl]-2-{[2-(4-methoxypyridin-2-yl)-5H,6H,7H-cyclopenta[d]pyrimidin-4-yl](methyl)amino}acetamide]
7 | 7.7 | CN(CC(=O)NC(C)(C)C)c1nc(-c2cc(OCC(O)CO)ccn2)nc2c1CCC2 (stereo in doubt) [Compound 415, N-tert-butyl-2-[(2-{4-[(2R)-2,3-dihydroxypropoxy]pyridin-2-yl}-5H,6H,7H-cyclopenta[d]pyrimidin-4-yl)(methyl)amino]acetamidede]
8 | 6.9 | c1ccc(-c2nc3c(c(N4CC5CC(C4)c4ccccc45)n2)CCC3)nc1 [Compound 1, 10-[2-(pyridin-2-yl)-5H,6H,7H-cyclopenta[d]pyrimidin-4-yl]-10-azatricyclo[6.3.1.0^{2,7}]dodeca-2,4,6-triene]
9 | 6.6 | COc1ccc2c(c1)CCN(c1nc(-c3ccccn3)nc3c1CCC3)CC2 [Compound 2, 7-methoxy-3-[2-(pyridin-2-yl)-5H,6H,7H-cyclopenta[d]pyrimidin-4-yl]-2,3,4,5-tetrahydro-1H-3-benzazepine]
10 | 6.8 | COc1cccc2c1CCN(c1nc(-c3ccccn3)nc3c1CCC3)CC2 [Compound 3, 6-methoxy-3-[2-(pyridin-2-yl)-5H,6H,7H-cyclopenta[d]pyrimidin-4-yl]-2,3,4,5-tetrahydro-1H-3-benzazepine]
11 | 6.4 | COc1cccc(N2CCCN(c3nc(-c4ccccn4)nc4c3CCC4)CC2)c1 [Compound 4, 1-(3-methoxyphenyl)-4-[2-(pyridin-2-yl)-5H,6H,7H-cyclopenta[d]pyrimidin-4-yl]-1,4-diazepane]
12 | 6.2 | O=C(CNc1nc(-c2ccccn2)nc2c1CCC2)Nc1ccccn1 [Compound 5, N-(pyridin-2-yl)-2-{[2-(pyridin-2-yl)-5H,6H,7H-cyclopenta[d]pyrimidin-4-yl]amino}acetamide]
13 | 6.5 | O=C(CNc1nc(-c2ccccn2)nc2c1CCC2)Nc1ccccc1F [Compound 6, N-(2-fluorophenyl)-2-{[2-(pyridin-2-yl)-5H,6H,7H-cyclopenta[d]pyrimidin-4-yl]amino}acetamide]
14 | 6.6 | O=C(CNc1nc(-c2ccccn2)nc2c1CCC2)Nc1ccc2cccnc2c1 [Compound 7, 2-{[2-(pyridin-2-yl)-5H,6H,7H-cyclopenta[d]pyrimidin-4-yl]amino}-N-(quinolin-7-yl)acetamide]
15 | 6.2 | CC(C)(C)NC(=O)CNc1cc(-c2ccccn2)nc2c1CCC2 [Compound 9, N-tert-butyl-2-{[2-(pyridin-2-yl)-5H,6H,7H-cyclopenta[b]pyridin-4-yl]amino}acetamide]
16 | 6.6 | CC(C)(C)NC(=O)CNc1nc(-c2ccccn2)nc2c1CCCC2 [Compound 10, N-tert-butyl-2-{[2-(pyridin-2-yl)-5,6,7,8-tetrahydroquinazolin-4-yl]amino}acetamide]
17 | 6.3 | COc1ccc(NC2CCCN(c3nc(-c4ccccn4)nc4c3CCC4)C2)cc1 (stereo not drawn) [Compound 11, N-(4-methoxyphenyl)-1-[2-(pyridin-2-yl)-5H,6H,7H-cyclopenta[d]pyrimidin-4-yl]piperidin-3-amine]
18 | 5.8 | COc1cnc(-c2nc3c(c(N(C)CC(=O)NC(C)(C)C)n2)CCC3)cn1 [Compound 12, N-tert-butyl-2-{[2-(5-methoxypyrazin-2-yl)-5H,6H,7H-cyclopenta[d]pyrimidin-4-yl](methyl)amino}acetamide]
19 | 6.4 | CN(C)c1ccnc(-c2nc3c(c(N4CCCCCC4)n2)CCC3)c1 [Compound 13, 2-[4-(azepan-1-yl)-5H,6H,7H-cyclopenta[d]pyrimidin-2-yl]-N,N-dimethylpyridin-4-amine]
20 | 6.8 | Cc1ccnc(-c2nc3c(c(N4CCCCCC4)n2)CCC3)c1 [Compound 14, 1-[2-(4-methylpyridin-2-yl)-5H,6H,7H-cyclopenta[d]pyrimidin-4-yl]azepane]
21 | 6.9 | COc1ccccc1NC(=O)CN(C)c1nc(-c2ccccn2)nc2c1CCC2 [Compound 15, N-(2-methoxyphenyl)-2-{methyl[2-(pyridin-2-yl)-5H,6H,7H-cyclopenta[d]pyrimidin-4-yl]amino}acetamide]
22 | 6.6 | CN(CC(=O)NC(C)(C)C)c1cc(-c2ccccn2)nc2c1CCC2 [Compound 16, N-tert-butyl-2-{methyl[2-(pyridin-2-yl)-5H,6H,7H-cyclopenta[b]pyridin-4-yl]amino}acetamide]
23 | 6.6 | CN(c1nc(-c2ccccn2)nc2c1CCC2)C1(C(=O)NC2CCCCC2)CC1 [Compound 17, N-cyclohexyl-1-{methyl[2-(pyridin-2-yl)-5H,6H,7H-cyclopenta[d]pyrimidin-4-yl]amino}cyclopropane-1-carboxamide]
24 | 5.4 | CN(c1nc(-c2ccccn2)nc2c1CCC2)C(C)(C)C(=O)NC(C)(C)C [Compound 19, N-tert-butyl-2-methyl-2-{methyl[2-(pyridin-2-yl)-5H,6H,7H-cyclopenta[d]pyrimidin-4-yl]amino}propanamide]
25 | 6.7 | CC(C(=O)NC(C)(C)C)N(c1ccccc1)c1nc(-c2ccccn2)nc2c1CCC2 (stereo not drawn) [Compound 20, N-tert-butyl-2-{phenyl[2-(pyridin-2-yl)-5H,6H,7H-cyclopenta[d]pyrimidin-4-yl]amino}propanamide]
26 | 6.9 | CN(CC(=O)Nc1ccc2cccnc2c1)c1nc(-c2ccccn2)nc2c1CCC2 [Compound 21, 2-{methyl[2-(pyridin-2-yl)-5H,6H,7H-cyclopenta[d]pyrimidin-4-yl]amino}-N-(quinolin-7-yl)acetamide]
27 | 7 | CN(CC(=O)Nc1ccccc1F)c1nc(-c2ccccn2)nc2c1CCC2 [Compound 22, N-(2-fluorophenyl)-2-{methyl[2-(pyridin-2-yl)-5H,6H,7H-cyclopenta[d]pyrimidin-4-yl]amino}acetamide]
28 | 6.9 | CN(CC(=O)NC(C)(C)C)c1nc(-c2ccccn2)nc2c1CCCC2 [Compound 23, N-tert-butyl-2-{methyl[2-(pyridin-2-yl)-5,6,7,8-tetrahydroquinazolin-4-yl]amino}acetamide]

Row | Compound | pEC50
29 | CCC(C)(O)COc1ccnc(-c2nc3c(c(N(C)CC(=O)NC(C)(C)C)n2)CCC3)c1 (stereo in doubt) [Compound 446, N-tert-butyl-2-[(2-{4-[(2R)-2-hydroxy-2-methylbutoxy]pyridin-2-yl}-5H,6H,7H-cyclopenta[d]pyrimidin-4-yl)(methyl)amino]acetamide] | 8.2
30 | c1ccc(-c2nc3c(c(N4CCCO[C@H]5CCC[C@@H]54)n2)CCC3)nc1 [Compound 18, 2-{4-[(5aS,8aS)-octahydro-2H-cyclopenta[b][1,4]oxazepin-5-yl]-5H,6H,7H-cyclopenta[d]pyrimidin-2-yl}pyridine] | 7.1
